Reference: US20100105655A1, “NOVEL COMPOUNDS 515” (ASTRAZENECA AB, priority 2008, published 2010)

target: T1, IGFR kinase (Homo sapiens, UniProt P08069); experiment: Enzyme assay (c), IGFR kinase, Caliper LabChip; assay type: biochemical; settings: 30 nM IGFR kinase, 6 uM ATP, 3 uM peptide mix; read-out: IGFR IC50
T1 construct: purchased Millipore
T1 sequence (P08069 31-1367): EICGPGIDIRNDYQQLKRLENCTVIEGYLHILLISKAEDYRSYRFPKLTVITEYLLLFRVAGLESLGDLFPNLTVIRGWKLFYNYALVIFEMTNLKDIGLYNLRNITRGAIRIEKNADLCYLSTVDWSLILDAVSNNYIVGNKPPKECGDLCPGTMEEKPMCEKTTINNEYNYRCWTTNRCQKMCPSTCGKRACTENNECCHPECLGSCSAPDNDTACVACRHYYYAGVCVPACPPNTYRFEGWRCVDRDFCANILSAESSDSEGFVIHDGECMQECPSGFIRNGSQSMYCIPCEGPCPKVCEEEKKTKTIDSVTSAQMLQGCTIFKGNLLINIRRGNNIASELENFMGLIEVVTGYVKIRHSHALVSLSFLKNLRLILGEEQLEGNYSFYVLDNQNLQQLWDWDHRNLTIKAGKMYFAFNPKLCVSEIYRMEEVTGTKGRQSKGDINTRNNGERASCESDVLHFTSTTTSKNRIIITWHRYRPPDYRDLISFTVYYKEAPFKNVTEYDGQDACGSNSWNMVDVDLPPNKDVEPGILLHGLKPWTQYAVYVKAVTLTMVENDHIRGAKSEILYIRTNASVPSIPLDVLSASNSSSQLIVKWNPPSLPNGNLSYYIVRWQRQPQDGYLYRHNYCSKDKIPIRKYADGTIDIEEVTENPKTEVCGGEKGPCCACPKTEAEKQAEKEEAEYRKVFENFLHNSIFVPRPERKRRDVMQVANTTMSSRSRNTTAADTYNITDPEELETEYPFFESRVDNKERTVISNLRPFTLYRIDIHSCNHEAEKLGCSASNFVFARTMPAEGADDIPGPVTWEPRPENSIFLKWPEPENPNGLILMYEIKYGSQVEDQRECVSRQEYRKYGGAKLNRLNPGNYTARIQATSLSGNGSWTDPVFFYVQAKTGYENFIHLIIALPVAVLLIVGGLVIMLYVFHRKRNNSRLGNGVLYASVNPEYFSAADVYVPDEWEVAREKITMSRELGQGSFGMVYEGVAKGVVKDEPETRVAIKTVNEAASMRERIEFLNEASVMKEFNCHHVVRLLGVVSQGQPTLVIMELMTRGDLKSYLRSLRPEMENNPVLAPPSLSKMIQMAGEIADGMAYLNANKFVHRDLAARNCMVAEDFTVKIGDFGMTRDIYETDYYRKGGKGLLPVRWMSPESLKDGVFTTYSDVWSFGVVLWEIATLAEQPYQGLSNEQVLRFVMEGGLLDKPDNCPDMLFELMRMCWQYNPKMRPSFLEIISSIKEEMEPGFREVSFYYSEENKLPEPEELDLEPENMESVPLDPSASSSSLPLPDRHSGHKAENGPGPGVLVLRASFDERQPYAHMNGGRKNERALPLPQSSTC

Point of comparison: COc1cc(C2CCNCC2)ccc1Nc1ncc(Cl)c(-c2cnc3ccc(F)cn23)n1 [Example 247, 5-chloro-4-(6-fluoroimidazo[1,2-a]pyridin-3-yl)-N-[2-methoxy-4-(4-piperidyl)phenyl]pyrimidin-2-amine], IC50 3 nM. Against it:
- COc1cc(C2CCN(C(=O)CO)CC2)ccc1Nc1ncc(C#N)c(-c2cnn3ccccc23)n1 [Example 240, 2-[4-[1-(2-hydroxyacetyl)-4-piperidyl]-2-methoxy-anilino]-4-pyrazolo[1,5-a]pyridin-3-yl-pyrimidine-5-carbonitrile] — the same, 3 nM
- COc1cc(N2C[C@@H]3C[C@H]2CN3C(C)=O)ccc1Nc1ncc(Cl)c(-c2cnn3ccccc23)n1 [Example 241, 1-[(1S,4S)-2-[4-[(5-chloro-4-pyrazolo[1,5-a]pyridin-3-yl-pyrimidin-2-yl)amino]-3-methoxy-phenyl]-2,5-diazabicyclo[2.2.1]heptan-5-yl]ethanone] — 12-fold higher, 36 nM
- COc1cc(N2CC3CN(C(CO)CO)CC(C2)O3)ccc1Nc1ncc(Cl)c(-c2cnn3ccccc23)n1 [Example 242, 2-[7-[4-[(5-chloro-4-pyrazolo[1,5-a]pyridin-3-yl-pyrimidin-2-yl)amino]-3-methoxy-phenyl]-9-oxa-3,7-diazabicyclo[3.3.1]nonan-3-yl]propane-1,3-diol] — 250-fold higher, 740 nM
- COc1cc(C2CCN(C(=O)CO)CC2)ccc1Nc1ncc(Cl)c(-c2cnc3ccc(F)cn23)n1 [Example 244, 1-[4-[4-[[5-chloro-4-(6-fluoroimidazo[1,2-a]pyridin-3-yl)pyrimidin-2-yl]amino]-3-methoxy-phenyl]-1-piperidyl]-2-hydroxy-ethanone] — 1.7-fold higher, 5 nM
- COc1cc(C2CCN(C(=O)CO)CC2)ccc1Nc1ncc(Cl)c(-c2cnc3cc(C)ccn23)n1 [Example 245, 1-[4-[4-[[5-chloro-4-(7-methylimidazo[1,2-a]pyridin-3-yl)pyrimidin-2-yl]amino]-3-methoxy-phenyl]-1-piperidyl]-2-hydroxy-ethanone] — within 1.5-fold, 4 nM
- COc1cc(C2CCN(C(=O)[C@@H](C)O)CC2)ccc1Nc1ncc(Cl)c(-c2cnc3ccc(F)cn23)n1 [Example 246, (2R)-1-[4-[4-[[5-chloro-4-(6-fluoroimidazo[1,2-a]pyridin-3-yl)pyrimidin-2-yl]amino]-3-methoxyphenyl]-1-piperidyl]-2-hydroxy-propan-1-one] — within 1.5-fold, 4 nM
- CNCC(=O)N1CCN(c2ccc(Nc3ncc(Cl)c(-c4cnc5c(F)cc(F)cn45)n3)c(OC)c2)CC1 [Example 248, 1-[4-[4-[[5-chloro-4-(6,8-difluoroimidazo[1,2-a]pyridin-3-yl)pyrimidin-2-yl]amino]-3-methoxy-phenyl]piperazin-1-yl]-2-(methylamino)ethanone] — 2-fold higher, 6 nM
- COc1cc(N2CCN(C(=O)CO)CC2)ccc1Nc1ncc(Cl)c(-c2cnc3ccc(F)cn23)n1 [Example 249, 1-[4-[4-[[5-chloro-4-(6-fluoroimidazo[1,2-a]pyridin-3-yl)pyrimidin-2-yl]amino]-3-methoxy-phenyl]piperazin-1-yl]-2-hydroxy-ethanone] — 1.7-fold higher, 5 nM
- COc1cc(N2CCN(C(=O)CO)CC2)ccc1Nc1ncc(Cl)c(-c2cnc3c(F)cc(F)cn23)n1 [Example 250, 1-[4-[4-[[5-chloro-4-(6,8-difluoroimidazo[1,2-a]pyridin-3-yl)pyrimidin-2-yl]amino]-3-methoxy-phenyl]piperazin-1-yl]-2-hydroxy-ethanone] — 2.3-fold higher, 7 nM
- COc1cc(N2CCN(C(=O)CO)CC2)ccc1Nc1ncc(Cl)c(-c2cnc3cc(C)ccn23)n1 [Example 251, 1-[4-[4-[[5-chloro-4-(7-methylimidazo[1,2-a]pyridin-3-yl)pyrimidin-2-yl]amino]-3-methoxy-phenyl]piperazin-1-yl]-2-hydroxy-ethanone] — 3-fold higher, 9 nM
- COc1cc(N2CCN(C(=O)[C@@H](C)N)CC2)ccc1Nc1ncc(Cl)c(-c2cnc3ccc(F)cn23)n1 [Example 252, (2R)-2-amino-1-[4-[4-[[5-chloro-4-(6-fluoroimidazo[1,2-a]pyridin-3-yl)pyrimidin-2-yl]amino]-3-methoxy-phenyl]piperazin-1-yl]propan-1-one] — 2.3-fold higher, 7 nM
- COc1cc(N2CCN(C(=O)[C@@H](C)N)CC2)ccc1Nc1ncc(Cl)c(-c2cnc3c(F)cc(F)cn23)n1 [Example 253, (2R)-2-amino-1-[4-[4-[[5-chloro-4-(6,8-difluoroimidazo[1,2-a]pyridin-3-yl)pyrimidin-2-yl]amino]-3-methoxy-phenyl]piperazin-1-yl]propan-1-one] — within 1.5-fold, 4 nM
- COc1cc(N2CCN(C(=O)[C@@H](C)N)CC2)ccc1Nc1ncc(Cl)c(-c2cnc3cc(C)ccn23)n1 [Example 254, (2R)-2-amino-1-[4-[4-[[5-chloro-4-(7-methylimidazo[1,2-a]pyridin-3-yl)pyrimidin-2-yl]amino]-3-methoxy-phenyl]piperazin-1-yl]propan-1-one] — 1.7-fold higher, 5 nM
- COc1cc(N2CCN(C(=O)[C@@H](C)O)CC2)ccc1Nc1ncc(Cl)c(-c2cnc3ccc(F)cn23)n1 [Example 255, (2R)-1-[4-[4-[[5-chloro-4-(6-fluoroimidazo[1,2-a]pyridin-3-yl)pyrimidin-2-yl]amino]-3-methoxy-phenyl]piperazin-1-yl]-2-hydroxy-propan-1-one] — 1.7-fold higher, 5 nM
- COc1cc(N2CCN(C(=O)[C@@H](C)O)CC2)ccc1Nc1ncc(Cl)c(-c2cnc3c(F)cc(F)cn23)n1 [Example 256, (2R)-1-[4-[4-[[5-chloro-4-(6,8-difluoroimidazo[1,2-a]pyridin-3-yl)pyrimidin-2-yl]amino]-3-methoxy-phenyl]piperazin-1-yl]-2-hydroxy-propan-1-one] — 1.7-fold higher, 5 nM
- COc1cc(N2CCN(C(=O)[C@@H](C)O)CC2)ccc1Nc1ncc(Cl)c(-c2cnc3cc(C)ccn23)n1 [Example 257, (2R)-1-[4-[4-[[5-chloro-4-(7-methylimidazo[1,2-a]pyridin-3-yl)pyrimidin-2-yl]amino]-3-methoxy-phenyl]piperazin-1-yl]-2-hydroxy-propan-1-one] — 3.3-fold higher, 10 nM
- COc1cc(N2CCN(C(=O)[C@H](C)N)CC2)ccc1Nc1ncc(Cl)c(-c2cnc3cc(C)ccn23)n1 [Example 258, (2S)-2-amino-1-[4-[4-[[5-chloro-4-(7-methylimidazo[1,2-a]pyridin-3-yl)pyrimidin-2-yl]amino]-3-methoxy-phenyl]piperazin-1-yl]propan-1-one] — 1.7-fold higher, 5 nM
- COc1cc(N2CCN(C(C)(C)CO)CC2)ccc1Nc1ncc(Cl)c(-c2cnc3ccc(F)cn23)n1 [Example 259, 2-[4-[4-[[5-chloro-4-(6-fluoroimidazo[1,2-a]pyridin-3-yl)pyrimidin-2-yl]amino]-3-methoxy-phenyl]piperazin-1-yl]-2-methyl-propan-1-ol] — within 1.5-fold, 4 nM
- COc1cc(N2CCN(C(C)(C)CO)CC2)ccc1Nc1ncc(C)c(-c2cnc3ccc(F)cn23)n1 [Example 260, 2-[4-[4-[[4-(6-fluoroimidazo[1,2-a]pyridin-3-yl)-5-methyl-pyrimidin-2-yl]amino]-3-methoxy-phenyl]piperazin-1-yl]-2-methyl-propan-1-ol] — 3.7-fold higher, 11 nM
- COc1cc(N2CCN(C(C)(C)CO)CC2)ccc1Nc1ncc(F)c(-c2cnc3ccc(F)cn23)n1 [Example 261, 2-[4-[4-[[5-fluoro-4-(6-fluoroimidazo[1,2-a]pyridin-3-yl)pyrimidin-2-yl]amino]-3-methoxy-phenyl]piperazin-1-yl]-2-methyl-propan-1-ol] — 7.7-fold higher, 23 nM
